# Measurements taken from patent US20220125959A1, “PROSTATE-SPECIFIC MEMBRANE ANTIGEN (PSMA) INHIBITORS AS DIAGNOSTIC AND RADIONUCLIDE THERAPEUTIC AGENTS” (FIVE ELEVEN PHARMA INC., priority 2019, published 2022).
# How the values were obtained:
# [1] = tested on: PC3-PIP (PSMA positive) and PC-3 tumors (PSMA negative); assay: Biodistribution of [68Ga]4 in tumor bearing nude mice; assay type: in vivo, CD-1 male nude mice
# Method: (§1) ^68Ga labeling: To 15 nmole ligand 4 (1 mg/mL DMSO) were added 20 μL of 2.0 N NaOAc, 500 μL ^68Ga-solution (2.25 mCi). The reaction was heated in a heating block at 90° C. for 10 minutes in a 3 mL closed vial. After cooling, the sample was analyzed by HPLC (HPLC: Eclise XDB C18 150×4.6 mm, gradient, 2 mL/min; A: 0.1% TFA in water; B: 0.1% TFA in ACN: 0-2 min 100% A; 2-4 min: from 0% to 100% B; 4-9 min: 100% B; 9-10 min: from 100% to 0% B). Radiochemical purity of [^68Ga]4 was >99% RCP (FIG. 1) and injected doses were stable at 2 hr after formulation.
# For iv injection 150 μL of labeled solution was diluted with saline to 3 mL. Mice were injected with 150 μL of formulated dose. Injected radioactivity was 19-28 μCi and PSMA ligand amount was constant at 0.2 nmole/mouse.
# Biodistribution of [^68Ga]4, [^177Lu]4 and [^177Lu]7 was determined in nude mice bearing PIP PC3 (PSMA positive) and PC3 (PSMA negative) tumors on the left and right shoulder, respectively, over a period of 192 h (Table 3a, 3b and 3c). […] The uptake in PC3 tumors (PSMA negative) of both ligands, [^177Lu]4 and [^177Lu]7, was clearly much lower than those of PC-3 PIP tumors (PSMA positive).
# [2] = Stability of injected doses after formulation; assay type: physicochemical; conditions: at 2 hr after formulation
# Method: as §1
# ^177Lu labeling: To 10 μg ligand (1 mg/mL DMSO) were added 15 μL of 2.0 N NaOAc, 400 μL 0.05 N HCl, and 20 μL ^177Lu-solution (780 μCi (Capintec setting 450 (reading×10)). The reaction was heated with a heating block at 95° C. for 1 hour in a 3 mL closed vial. After cooling, the sample was analyzed by HPLC (HPLC: Eclipse XDB-C18 150×4.6 mm, gradient, 1 mL/min; A: 0.1% TFA in water; B: 0.1% TFA in ACN: 0-4 min A/B 85/15%; 4-11 min: from 85/15 to 30/70%; 11-14 min: from 30/70% to 85/15%). Radiochemical purity of [^177Lu]4 (FIG. 2) and [^177Lu]7 was >98% and injected doses were stable at 48 hr after formulation.
# For iv injection 150 μL of labeled solution was diluted with saline to 3.75mL. Mice were injected with 150 μL of formulated dose. Injected radioactivity was 100 μCi and PSMA ligand amount was constant at 0.72 nmole/mouse.
# [3] = tested on: PSMA-positive cell line, PIP PC3; assay: In vitro cell uptake, PIP PC3 cells; assay type: cell-based
# Method: To determine the cell uptakes of the [^177Lu] labelled ligands, 5×10^5 cells/well were grown in 12-well plates in 1 mL of medium for 48 h. The cells were washed twice with PBS, and 900 μL fresh media were added. […] All samples were prepared in triplicate. Following the incubation at 37° C., cells were washed twice to remove unbound activity and afterwards lysed in 1 mL of 0.5 M NaOH. Activity was measured in a gamma counter. Aliquots of the solution added to the cells were also measured for the calculation of the cellular uptake as % ID.
# [4] = tested on: PSMA-negative cell line, PC3; assay: In vitro cell uptake, PC3 cells; assay type: cell-based; conditions: PC3 (do not express PSMA), 60 min
# Method: To determine the cell uptakes of the [^177Lu] labelled ligands, 5×10^5 cells/well were grown in 12-well plates in 1 mL of medium for 48 h. The cells were washed twice with PBS, and 900 μL fresh media were added. Radiolabelled ligand was added and the PSMA-inhibitor (2-PMPA) was applied in a final concentration of 10 μM to determine unspecific binding. All samples were prepared in triplicate. Following the incubation at 37° C., cells were washed twice to remove unbound activity and afterwards lysed in 1 mL of 0.5 M NaOH. Activity was measured in a gamma counter. Aliquots of the solution added to the cells were also measured for the calculation of the cellular uptake as % ID.
smiles,measurement,setting,value
O=C(O)CCC(C(=O)O)N1CCN(CC(=O)O)CCN(C(CCC(=O)NCC(=O)N[C@@H](Cc2ccc(OCC(=O)N[C@@H](Cc3ccccc3)C(=O)NCCCC[C@H](NC(=O)N[C@@H](CCC(=O)O)C(=O)O)C(=O)O)cc2)C(=O)O)C(=O)O)CCN(CC(=O)O)CC1.[68Ga] (stereo partly drawn) [[^68Ga]4],Biodistribution: Blood,[1]; 30 min,1.22 ± 0.06 % dose/g
same,Biodistribution: Bone,[1]; 30 min,0.35 ± 0.01 % dose/g
same,Biodistribution: Brain,[1]; 30 min,0.04 ± 0.01 % dose/g
same,Biodistribution: Heart,[1]; 30 min,0.75 ± 0.12 % dose/g
same,Biodistribution: Intestine,[1]; 30 min,0.48 ± 0.12 % dose/g
same,Biodistribution: Kidney,[1]; 30 min,137.36 ± 12.92 % dose/g
same,Biodistribution: Liver,[1]; 30 min,3.23 ± 0.31 % dose/g
same,Biodistribution: Lung,[1]; 30 min,2.46 ± 0.37 % dose/g
same,Biodistribution: Muscle,[1]; 30 min,0.51 ± 0.07 % dose/g
same,Biodistribution: PC3-PSMA- tumor,[1]; 30 min,1.59 ± 0.27 % dose/g
same,Biodistribution: PIP-PSMA+ tumor,[1]; 30 min,12.88 ± 2.08 % dose/g
same,Biodistribution: Pancreas,[1]; 30 min,1.57 ± 0.93 % dose/g
same,Biodistribution: Skin,[1]; 30 min,1.71 ± 0.22 % dose/g
same,Biodistribution: Spleen,[1]; 30 min,7.19 ± 1.55 % dose/g
same,Biodistribution: Stomach,[1]; 30 min,0.44 ± 0.28 % dose/g
same,Biodistribution: Blood,[1]; 1 hr,0.65 ± 0.08 % dose/g
same,Biodistribution: Bone,[1]; 1 hr,0.17 ± 0.01 % dose/g
same,Biodistribution: Brain,[1]; 1 hr,0.03 ± 0.00 % dose/g
same,Biodistribution: Heart,[1]; 1 hr,0.43 ± 0.06 % dose/g
same,Biodistribution: Intestine,[1]; 1 hr,0.44 ± 0.13 % dose/g
same,Biodistribution: Kidney,[1]; 1 hr,166.31 ± 18.62 % dose/g
same,Biodistribution: Liver,[1]; 1 hr,2.87 ± 0.30 % dose/g
same,Biodistribution: Lung,[1]; 1 hr,1.52 ± 0.28 % dose/g
same,Biodistribution: Muscle,[1]; 1 hr,0.21 ± 0.05 % dose/g
same,Biodistribution: PC3-PSMA- tumor,[1]; 1 hr,1.14 ± 0.25 % dose/g
same,Biodistribution: PIP-PSMA+ tumor,[1]; 1 hr,13.86 ± 1.54 % dose/g
same,Biodistribution: Pancreas,[1]; 1 hr,0.75 ± 0.13 % dose/g
same,Biodistribution: Skin,[1]; 1 hr,0.64 ± 0.26 % dose/g
same,Biodistribution: Spleen,[1]; 1 hr,4.60 ± 1.80 % dose/g
same,Biodistribution: Stomach,[1]; 1 hr,0.34 ± 0.19 % dose/g
same,Biodistribution: Blood,[1]; 2 hr,0.53 ± 0.11 % dose/g
same,Biodistribution: Bone,[1]; 2 hr,0.19 ± 0.03 % dose/g
same,Biodistribution: Brain,[1]; 2 hr,0.03 ± 0.00 % dose/g
same,Biodistribution: Heart,[1]; 2 hr,0.25 ± 0.04 % dose/g
same,Biodistribution: Intestine,[1]; 2 hr,0.38 ± 0.04 % dose/g
same,Biodistribution: Kidney,[1]; 2 hr,116.41 ± 51.94 % dose/g
same,Biodistribution: Liver,[1]; 2 hr,2.54 ± 0.16 % dose/g
same,Biodistribution: Lung,[1]; 2 hr,1.05 ± 0.08 % dose/g
same,Biodistribution: Muscle,[1]; 2 hr,0.14 ± 0.07 % dose/g
same,Biodistribution: PC3-PSMA- tumor,[1]; 2 hr,0.74 ± 0.23 % dose/g
same,Biodistribution: PIP-PSMA+ tumor,[1]; 2 hr,16.74 ± 2.75 % dose/g
same,Biodistribution: Pancreas,[1]; 2 hr,0.50 ± 0.15 % dose/g
same,Biodistribution: Skin,[1]; 2 hr,0.62 ± 0.31 % dose/g
same,Biodistribution: Spleen,[1]; 2 hr,3.41 ± 2.46 % dose/g
same,Biodistribution: Stomach,[1]; 2 hr,0.20 ± 0.09 % dose/g
same,Tumor uptake,[1]; suitable for PET imaging,excellent tumor uptake
same,Stability of injected doses,[2],stable
"O=C(O)CC[C@H](NC(=O)N[C@@H](CCCCNC(=O)[C@H](Cc1ccc2ccccc2c1)NC(=O)[C@H]1CC[C@H](CNC(=O)CN2CCN(CC(=O)O)CCN(CC(=O)O)CCN(CC(=O)O)CC2)CC1)C(=O)O)C(=O)O.[177Lu] [[^177Lu]PSMA-617, reference compound]",In vitro cell uptake,"[3]; PIP PC3, 5 min",3.5 % ID per 5 × 10^5 cells
same,In vitro cell uptake,"[3]; PIP PC3, 15 min",5.8 % ID per 5 × 10^5 cells
same,In vitro cell uptake,"[3]; PIP PC3, 30 min",6.8 % ID per 5 × 10^5 cells
same,In vitro cell uptake,"[3]; PIP PC3, 60 min",8.2 % ID per 5 × 10^5 cells
same,In vitro cell uptake,"[3]; PIP PC3, 60 min, with PSMA inhibitor (2-PMPA, 2 uM)",1.0 % ID per 5 × 10^5 cells
same,In vitro cell uptake,"[3]; PIP PC3, 120 min",9.6 % ID per 5 × 10^5 cells
same,In vitro cell uptake,[4],0.3 % ID per 5 × 10^5 cells
